Data: US8431565B2 (priority 2007, dated 2013)

Target: T1, rat CB2 receptor (rCB2) (Rattus norvegicus, UniProt Q9QZN9)
T1 sequence (Q9QZN9 1-360): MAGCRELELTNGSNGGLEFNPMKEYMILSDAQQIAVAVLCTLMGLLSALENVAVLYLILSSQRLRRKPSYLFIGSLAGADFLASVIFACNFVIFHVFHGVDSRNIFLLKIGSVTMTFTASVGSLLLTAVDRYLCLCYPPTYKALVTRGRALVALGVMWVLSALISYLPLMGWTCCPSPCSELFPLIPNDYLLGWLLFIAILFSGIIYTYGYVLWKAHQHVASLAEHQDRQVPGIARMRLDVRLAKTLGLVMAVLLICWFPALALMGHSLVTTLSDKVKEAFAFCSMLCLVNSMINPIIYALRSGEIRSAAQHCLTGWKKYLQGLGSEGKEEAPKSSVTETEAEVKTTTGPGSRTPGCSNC

SMILES	EC50
C[C@@H](NC(=O)c1nc(-c2ccccc2)n2c1CN(C(=O)C1CC1)CC2)C1CCCCC1 [Compound 132, (R)-N-(1-cyclohexylethyl)-7-(cyclopropanecarbonyl)-3-phenyl-5,6,7,8-tetrahydroimidazo[1,5-a]pyrazine-1-carboxamide]	10 to 100 nM
CC12CCC(C1)C(C)(C)C2NC(=O)c1nc(-c2ccccc2)n2c1CN(CCO)CC2 (centres unmarked) [Compound 143, 7-(2-hydroxyethyl)-3-phenyl-N-(1,3,3-trimethylbicyclo[2.2.1]heptan-2-yl)-5,6,7,8-tetrahydroimidazo[1,5-a]pyrazine-1-carboxamide]	10 to 100 nM
CNC(=O)[C@H](CC(C)C)NC(=O)c1nc(-c2ccc(Cl)c(F)c2)n2c1CN(C)CC2 [Compound 277, (S)-3-(4-chloro-3-fluorophenyl)-7-methyl-N-(4-methyl-1-(methylamino)-1-oxopentan-2-yl)-5,6,7,8-tetrahydroimidazo[1,5-a]pyrazine-1-carboxamide]	10 to 100 nM
CCN1CCn2c(-c3ccccc3)nc(C(=O)N[C@H](C(=O)NC)C(C)(C)C)c2C1 [Compound 149, (S)-N-(3,3-dimethyl-1-(methylamino)-1-oxobutan-2-yl)-7-ethyl-3-phenyl-5,6,7,8-tetrahydroimidazo[1,5-a]pyrazine-1-carboxamide]	10 to 100 nM
CCN1CCn2c(-c3ccccc3)nc(C(=O)NCC3CCOCC3)c2C1 [Compound 168, 7-ethyl-3-phenyl-N-((tetrahydro-2H-pyran-4-yl)methyl)-5,6,7,8-tetrahydroimidazo[1,5-a]pyrazine-1-carboxamide]	10 to 100 nM
Cc1noc([C@@H](NC(=O)c2nc(-c3ccccc3)n3c2CN(C)CC3)C(C)(C)C)n1 [Compound 87, (S)-N-(2,2-dimethyl-1-(3-methyl-1,2,4-oxadiazol-5-yl)propyl)-7-methyl-3-phenyl-5,6,7,8-tetrahydroimidazo[1,5-a]pyrazine-1-carboxamide]	10 to 100 nM
CCN1CCn2c(-c3ccccc3)nc(C(=O)NC3C4(C)CCC(C4)C3(C)C)c2C1 (centres unmarked) [Compound 144, 7-ethyl-3-phenyl-N-(1,3,3-trimethylbicyclo[2.2.1]heptan-2-yl)-5,6,7,8-tetrahydroimidazo[1,5-a]pyrazine-1-carboxamide]	0.1 to 10 nM
COC(=O)N1CCn2c(-c3ccccc3)nc(C(=O)N[C@H](C)C3CCCCC3)c2C1 [Compound 185, (R)-methyl 1-(1-cyclohexylethylcarbamoyl)-3-phenyl-5,6-dihydroimidazo[1,5-a]pyrazine-7(8H)-carboxylate]	10 to 100 nM
CNC(=O)[C@@H](NC(=O)c1nc(-c2cc(C)ccc2F)n2c1CN(C)CC2)C(C)(C)C [Compound 251, (S)-N-(3,3-dimethyl-1-(methylamino)-1-oxobutan-2-yl)-3-(2-fluoro-5-methylphenyl)-7-methyl-5,6,7,8-tetrahydroimidazo[1,5-a]pyrazine-1-carboxamide]	10 to 100 nM
CNC(=O)[C@@H](NC(=O)c1nc(-c2ccc3ccccc3c2)n2c1CN(C)CCC2)C(C)(C)C [Compound 380, (S)-N-(3,3-dimethyl-1-(methylamino)-1-oxobutan-2-yl)-8-methyl-3-(naphthalen-2-yl)-6,7,8,9-tetrahydro-5H-imidazo[1,5-a][1,4]diazepine-1-carboxamide]	10 to 100 nM
CNC(=O)[C@@H](NC(=O)c1nc(-c2ccsc2)n2c1CN(S(=O)(=O)c1ccc(F)cc1)CC2)C(C)(C)C [Compound 109, (S)-N-(3,3-dimethyl-1-(methylamino)-1-oxobutan-2-yl)-7-(4-fluorophenylsulfonyl)-3-(thiophen-3-yl)-5,6,7,8-tetrahydroimidazo[1,5-a]pyrazine-1-carboxamide]	10 to 100 nM
CC(C)CN1CCn2c(-c3ccccc3)nc(C(=O)Nc3ccccc3)c2C1 [Compound 150, 7-isobutyl-N,3-diphenyl-5,6,7,8-tetrahydroimidazo[1,5-a]pyrazine-1-carboxamide]	10 to 100 nM
CNC(=O)[C@@H](NC(=O)c1nc(-c2ccc(C(C)(C)C)cc2)n2c1CN(C)CCC2)C(C)(C)C [Compound 414, (S)-3-(4-tert-butylphenyl)-N-(3,3-dimethyl-1-(methylamino)-1-oxobutan-2-yl)-8-methyl-6,7,8,9-tetrahydro-5H-imidazo[1,5-a][1,4]diazepine-1-carboxamide]	10 to 100 nM
CC(C)CN1CCn2c(-c3ccccc3)nc(C(=O)N[C@@H](C)c3ccccc3)c2C1 [Compound 145, (S)-7-isobutyl-3-phenyl-N-(1-phenylethyl)-5,6,7,8-tetrahydroimidazo[1,5-a]pyrazine-1-carboxamide]	10 to 100 nM
CNC(=O)[C@@H](NC(=O)c1nc(-c2ccccc2)n2c1CN(S(=O)(=O)CC(C)C)CC2)C(C)(C)C [Compound 95, (S)-N-(3,3-dimethyl-1-(methylamino)-1-oxobutan-2-yl)-7-(isobutylsulfonyl)-3-phenyl-5,6,7,8-tetrahydroimidazo[1,5-a]pyrazine-1-carboxamide]	10 to 100 nM
Cc1noc([C@@H](NC(=O)c2nc(-c3ccccc3)n3c2CN(CC(C)C)CC3)C(C)(C)C)n1 [Compound 90, (S)-N-(2,2-dimethyl-1-(3-methyl-1,2,4-oxadiazol-5-yl)propyl)-7-isobutyl-3-phenyl-5,6,7,8-tetrahydroimidazo[1,5-a]pyrazine-1-carboxamide]	0.1 to 10 nM
COC(=O)N1CCn2c(-c3ccccc3)nc(C(=O)N[C@@H](C)c3ccccc3)c2C1 [Compound 179, (S)-methyl 3-phenyl-1-(1-phenylethylcarbamoyl)-5,6-dihydroimidazo[1,5-a]pyrazine-7(8H)-carboxylate]	10 to 100 nM
CNC(=O)[C@@H](NC(=O)c1nc(-c2ccccc2)n2c1CN(S(=O)(=O)c1ccc(C#N)cc1)CC2)C(C)(C)C [Compound 108, (S)-7-(4-cyanophenylsulfonyl)-N-(3,3-dimethyl-1-(methylamino)-1-oxobutan-2-yl)-3-phenyl-5,6,7,8-tetrahydroimidazo[1,5-a]pyrazine-1-carboxamide]	10 to 100 nM
CC(C)CN1CCn2c(-c3ccccc3)nc(C(=O)N[C@@H](C)C(C)(C)C)c2C1 [Compound 53, (S)-N-(3,3-dimethylbutan-2-yl)-7-isobutyl-3-phenyl-5,6,7,8-tetrahydroimidazo[1,5-a]pyrazine-1-carboxamide]	10 to 100 nM
CNC(=O)[C@@H](NC(=O)c1nc(-c2ccccc2)n2c1CN(Cc1ccco1)CC2)C(C)(C)C [Compound 64, (S)-N-(3,3-dimethyl-1-(methylamino)-1-oxobutan-2-yl)-7-(furan-2-ylmethyl)-3-phenyl-5,6,7,8-tetrahydroimidazo[1,5-a]pyrazine-1-carboxamide]	10 to 100 nM
C[C@@H](NC(=O)c1nc(-c2ccccc2)n2c1CN(C(=O)OC(C)(C)C)CC2)C1CCCCC1 [Compound 37, (R)-tert-butyl 1-(1-cyclohexylethylcarbamoyl)-3-phenyl-5,6-dihydroimidazo[1,5-a]pyrazine-7(8H)-carboxylate]	10 to 100 nM
CNC(=O)[C@@H](NC(=O)c1nc(-c2ccccc2)n2c1CN(C1CC1)CC2)C(C)(C)C [Compound 197, (S)-7-cyclopropyl-N-(3,3-dimethyl-1-(methylamino)-1-oxobutan-2-yl)-3-phenyl-5,6,7,8-tetrahydroimidazo[1,5-a]pyrazine-1-carboxamide]	10 to 100 nM
CNC(=O)[C@@H](NC(=O)c1nc(-c2cccc(C(F)(F)F)c2)n2c1CN(C)CCC2)C(C)(C)C [Compound 438, (S)-N-(3,3-dimethyl-1-(methylamino)-1-oxobutan-2-yl)-8-methyl-3-(3-(trifluoromethyl)phenyl)-6,7,8,9-tetrahydro-5H-imidazo[1,5-a][1,4]diazepine-1-carboxamide]	10 to 100 nM
Cc1ccc(-c2nc(C(=O)N[C@H](c3nc(C)no3)C(C)(C)C)c3n2CCCN(C(=O)OC(C)(C)C)C3)c(F)c1 [Compound 518, (S)-tert-butyl 1-(2,2-dimethyl-1-(3-methyl-1,2,4-oxadiazol-5-yl)propylcarbamoyl)-3-(2-fluoro-4-methylphenyl)-6,7-dihydro-5H-imidazo[1,5-a][1,4]diazepine-8(9H)-carboxylate]	10 to 100 nM
O=C(NC1CCCCC1)c1nc(-c2ccccc2)n2c1CN(CC1CCOC1)CC2 (centres unmarked) [Compound 141, N-cyclohexyl-3-phenyl-7-((tetrahydrofuran-3-yl)methyl)-5,6,7,8-tetrahydroimidazo[1,5-a]pyrazine-1-carboxamide]	10 to 100 nM
CNC(=O)[C@@H](NC(=O)c1nc(-c2ccsc2)n2c1CN(CC1CC1)CC2)C(C)(C)C [Compound 74, (S)-7-(cyclopropylmethyl)-N-(3,3-dimethyl-1-(methylamino)-1-oxobutan-2-yl)-3-(thiophen-3-yl)-5,6,7,8-tetrahydroimidazo[1,5-a]pyrazine-1-carboxamide]	10 to 100 nM
CNC(=O)[C@@H](NC(=O)c1nc(-c2ccc(C(F)(F)F)cc2)n2c1CNCC2)C(C)(C)C [Compound 5, (S)-N-(3,3-dimethyl-1-(methylamino)-1-oxobutan-2-yl)-3-(4-(trifluoromethyl)phenyl)-5,6,7,8-tetrahydroimidazo[1,5-a]pyrazin-1-carboxamide]	10 to 100 nM
CC(C)(C)[C@@H](CO)NC(=O)c1nc(-c2ccccc2)n2c1CN(CC1CC1)CC2 [Compound 84, (S)-7-(cyclopropylmethyl)-N-(1-hydroxy-3,3-dimethylbutan-2-yl)-3-phenyl-5,6,7,8-tetrahydroimidazo[1,5-a]pyrazine-1-carboxamide]	10 to 100 nM
CNC(=O)[C@@H](NC(=O)c1nc(-c2ccccc2)n2c1CN(S(=O)(=O)c1ccc(C(F)(F)F)cc1)CC2)C(C)(C)C [Compound 107, (S)-N-(3,3-dimethyl-1-(methylamino)-1-oxobutan-2-yl)-3-phenyl-7-(4-(trifluoromethyl)phenylsulfonyl)-5,6,7,8-tetrahydroimidazo[1,5-a]pyrazine-1-carboxamide]	10 to 100 nM
